For experiment [1], the system named is SOX2. As to the kind of experiment: SOX2 levels in xenograft tumors (IHC, qRT-PCR). In kind it is in vivo. The conditions noted are these: IHC and qRT-PCR, vs vehicle control-treated mice. The method, then: (§1) IHC was performed using the BioCare Mach4 Universal Detection Kit. Specifically, anti-SOX2 was diluted in Da Vinci Green Diluent and incubated overnight at 4° C. in a humidified chamber. HRP was detected with 3,30-diaminobenzidine (DAB) substrate for 4 minutes. TUNEL staining was performed according to the manufacturer's instruction. Slides were examined and images captured with EVOS M7000 microscope. Cell profiler (Stirling et al., 2021) and Image J Fiji software were used for image quantification.
On the technique in general: Real-time PCR tracks product formation cycle by cycle.

Experiment [2] relates to SOX2. The experiment is described as follows: SOX2 expression by Western blot / qRT-PCR in cancer cells. In kind it is cell-based, human. The protocol:
(§2) Lysate and RNA preparation: 100,000-300,000 cells were seeded in a poly-HEMA coated 6-well plate for indicated times in full serum unless indicated otherwise. Cells were collected by centrifugation and lysed with trizol for RNA extraction or direct 2× lysis buffer for protein lysates.
Xenograft data were analyzed using parametric statistics as described in the legends. Survival curves were analyzed with log-rank statistics. In vitro experiments were analyzed using parametric statistics (ANOVA global test with Dunnett's/Sidak multiple comparison test as post-hoc tests as applicable and described in legend) and presented as the mean±SEM. All real time PCR's are relative semi quantitative RT-PCR's (hereby referred to as qRT-PCR) and are a combined quantitation of a minimum of 3 independent biological trials assayed in triplicate with biological replicates represented as individual scatter dots in the graphs or as indicated in legends. In all cases, statistical significance was set at a threshold of p<0.05. All statistical analyses were conducted with GraphPad Prism Software Ver. 9.0 and specific statistical test information described in figure legends.
Background: Immunoblotting shows a protein as a band on a membrane.

Another experiment deals with HEY-T30 cells. As to the kind of experiment: Flow cytometry, Annexin V / PI apoptosis. The conditions noted are these: 3D, 48 hours; 10 nM BMP9, 300 nM paclitaxel or combination. In kind it is cell-based, human. The method, then: 700,000 cells were seeded in 60 mm poly-hema coated culture dishes, followed by incubation with 300 nM paclitaxel and 10 nM BMP9 alone or in simultaneous combination for 48 hours. Cells were centrifuged and resuspended in 1×binding buffer, followed by incubation with Annexin V and PI according to the manufacturer's procedure manual. The stained cell suspension was added to FACS tubes containing 200 μl 1×binding buffer and measured by BD LSRFortessa flow cytometer. The data were analyzed using BD FACSDiva (Becton Dickinson, NJ, USA) software. Annexin V-positive and PI-negative cells were considered to be in the early apoptotic phase, Annexin V-negative and PI-positive cells were considered to be in the necrosis phase, cells having positive staining for both Annexin-V and PI were considered to undergo late apoptosis and cells negative for Annexin V and PI were considered to be live cells.
In general terms: Flow cytometry measures light scatter and fluorescence of single cells or particles in a stream.

Another experiment relates to OCT4 or NANOG. The experiment is described as follows: qRT-PCR of OCT4 and NANOG under 3D condition. In kind it is cell-based, human. The conditions noted are these: PA1 cells. The protocol:
as §2

Experiment [3] relates to SOX2 promoter methylation. The experiment is described as follows: Methylation-specific qPCR of SOX2 promoter. In kind it is cell-based, human. The conditions noted are these: PA1, rhBMP9 24 h. The method, then: Genomic DNA was extracted, and bisulfite conversion was performed on 500 ng of gDNA using the MethylAmp DNA modification kit according to manufacturer's instructions. Relative quantitative RT-PCR (qPCR) was performed with methylation-specific and unmethylation-specific primers (see Table 3).

In another experiment the test system is HEYT30 cells. The experiment is described as follows: Cell survival under anchorage independence, HEYT30. In kind it is cell-based, human. The method, then: For Live/Dead analysis under anchorage independence, 1,000 cells were seeded in 96-well hydrogel-coated ultra-low attachment (ULA) plates (Corning #4515) for times indicated. Growth factor treatment was done under low serum 2.5% FBS condition (Cells were plated in 10% FBS to allow spheroid formation before beginning treatment). Cells were then stained with 2 μM Calcein-AM and 4 μM Ethidium-homodimer for 30 min before imaging. z-stacked images were obtained using the Zeiss LSM700 Confocal microscope (Microscopy and Flow Cytometry Core, University of South Carolina) and NIKON A1 Confocal microscope (UAB High Resolution Imaging Facility). Fluorescent quantification was performed using ImageJ Fiji software to calculate the Corrected Total Cell Fluorescent (CTCF)=Integrated Density−(Area of selected cell×Mean fluorescence of background readings) per spheroid.

The subject of another experiment is SKOV3-luc-GFP cells. As to the kind of experiment: SKOV3-luc-GFP intraperitoneal xenograft. In kind it is in vivo, NOD-SCID mice. The protocol:
All animal studies were performed in accordance with the Institutional Animal Care and Use Committee at the University of Alabama Birmingham. Female SCID mice (Key resources table) at 5-7 weeks of age were housed under pathogen-free conditions at the Animal Research Facility at UAB. 1.5×10^6 GFP-luciferase SK-OV3 cells or 3×10^6 GFP-luciferase expressing PA1 cells were intraperitoneally injected. Mice were monitored daily, with girth and weight measurement taken twice a week. Tumor progression was tracked weekly using the IVIS Lumina III In vivo Imaging System (Caliper Life Sciences, MA) at UAB's Small Animal Imaging Facility. rhBMP9 was administered at the time of tumor cell injection followed by daily intraperitoneal (i.p.) injections of 1 mg/mL in 4 mM HCl+PBS+DI water (Vehicle), to achieve a final 5 mg/kg dose. For metastasis and tumor growth analysis, mice were euthanized between 21-50 days depending on the cell line. At necropsy, ascites, if present, were collected and volumes measured when possible, tumor weights in the omentum and other organs were recorded and collected when possible. For survival studies, mice that reached end-point criteria, including continued weight loss, respiratory trouble and permanent recumbency were euthanized. For microscopic analysis of tissues, formalin-fixed tissues were processed, paraffin-embedded, and sectioned at 5 μm thickness and H&E stained at UAB's histology core.
as §1

A further experiment has as its system PA1 cells. The experiment is described as follows: Microarray transcription profile under anchorage independence. The conditions noted are these: 24 h, 2-fold change criterion. In kind it is cell-based, human. The protocol: as §2
Total cellular RNA was extracted using Trizol reagent according to the manufacturer's protocol. RNA quality was determined using an Agilent 2100 Bioanalyzer and an RNA 6000 Nano kit (Agilent, Cat. No. 5067-1511) with RNA integrity numbers (RIN) ranging from 9.8 to 10. Microarray analyses were performed on the GeneChip™ Human Gene 2.0 ST ArrayS (Thermo Fisher Scientific, Cat. No. 902112) by the functional genomic core at University of South Carolina. Data were imported into the Affymetrix GeneChip Expression Console 1.4.1.46 and processed at the gene-level using the Robust Multichip Analysis (RMA) algorithm to generate CHP files. Experimental-group specific transcriptional responses were determined using unpaired one-way between-subject analysis of variance (ANOVA). Differentially expressed genes with p-values smaller than 0.05 and fold change higher than 2.0 and lower than −2.0 were used for further bioinformatics analysis.

For “BMP9: recombinant human bone morphogenetic protein 9 (BMP9/GDF2), TGF-β family ligand”, the “SOX2 levels in xenograft tumors” value in the experiment on SOX2 [1] is “overall reduction”. Also, in the experiment on SOX2 [2] (A549, BON-1, H727 cells, 24 hours), the “SOX2 expression in other cancer types” value was “downregulated”. In addition, the “SOX2 in patient ascites-derived tumor cells” value in the experiment with SOX2 [2] (EOC15 and AF68, anchorage-independent, 48 hours) is “downregulated”. The “anchorage-independence-induced increases in SOX2” value in the experiment with SOX2 [2] (OVCAR4, OVCA420, OVCA433 cells, 3D) is recorded as “effectively suppressed”. Moreover, the “dose-response of SOX2 protein” value with SOX2 [2] (PA1 and OVCAR3, indicated doses, 24 h) is “dose-dependent repression”. The “SOX2 by qRT-PCR in anchorage-independent conditions” value in the experiment with SOX2 [2] (PA1 cells, 3D, 24 hrs) is recorded as “downregulation”. Further, in the experiment with SOX2 [2] (several cell lines incl. OVCAR3 and SKOV3, 10 nM, 24 hours), the “reduction in SOX2 expression under attached growth conditions” value was “significant”. Moreover, in the experiment with HEY-T30 cells, the apoptosis in cells worked out at 6.8%. Besides, in the experiment with OCT4 or NANOG, the “effect on OCT4 or NANOG” value is “did not have any significant effect”. In addition, in experiment [3], the “increase in SOX2 promoter methylation compared with control cells” value stood at 2.53. Further, the “reduction in percentage live cells” value was 63% in the experiment on HEYT30 cells (10 nM); “about 35%” in the experiment on HEYT30 cells (1 and 5 nM). Also, the “mice with detectable ascites” value in the experiment on SKOV3-luc-GFP cells (5 mg/kg i.p. daily) is given as “none”. In addition, the “intraperitoneal tumor growth by BLI in the abdomen” value with SKOV3-luc-GFP cells (5 mg/kg i.p. daily, day 16, vs vehicle) is “significantly lower”. Besides, the “infiltrated tumor cells in omental tumors (histology)” value in the experiment with SKOV3-luc-GFP cells (vs vehicle) was “significantly fewer”. Further, the “increase in TUNEL-positive cells in tumors” value in the experiment with SKOV3-luc-GFP cells (vs vehicle-treated mice) is reported as 143. In addition, the downregulated genes in the experiment on PA1 cells is on record as 210. For the same substance, the upregulated genes in the experiment on PA1 cells stood at 333. Further, the differentially expressed genes with PA1 cells (p<0.05) is given as 543.

For the origin of these results see patent publication US20240408175A1, “BMP9 OR AN AGONIST THEREOF AND ITS USES RELATED TO REDUCING METASTASIS OF CANCER” (THE UAB RESEARCH FOUNDATION, priority 2021, published 2024).
